What was measured:
[1] = tested on: P. falciparum male gametocytes; test: PhIDDLI timecourse assay, compound added at timepoints after triggering male gametogenesis; format: cell-based, Plasmodium falciparum NF54; conditions: for cells with late phenotype / cells forming exflagellation centres: compound added at 10 min post-induction; for cells forming exflagellation centres: DMSO control 17.2%; for arrest of gametogenesis: compound added concurrent with triggering gametogenesis
[2] = tested on: P. berghei ookinete development; test: P. berghei Ookinete Development Assay (PbODA); format: cell-based, Plasmodium berghei; conditions: Mean TOX HepG2 over Pb ODA value; GREEN = >10-fold; RED = <10-fold
[3] = tested on: P. falciparum protein kinase G (PfPKG); conditions: cited from earlier work

Row | Compound | cells with late phenotype [1] [%] | cells forming exflagellation centres [1] [%] | arrest of gametogenesis [1] | Cytotox ratio Pb Ookinete [2] | activity against recombinant PfPKG [3]
1 | CC(C)(CN)c1nc(-c2ccc(Br)c(O)c2)c(-c2ccncc2)[nH]1.Cl [TC13] | 83.3 | 2.7 | near total arrest | 38479.3 | had activity
2 | Cl.NCC1(c2nc(-c3ccc(Cl)c(O)c3)c(-c3ccncc3)[nH]2)CCCCC1 [TC41] | 84.9 | 1.1 | near total arrest | 14844.9 | 
3 | CC(C)(CNC(=O)[C@H]1CCCCN1)c1nc(-c2ccc(Cl)c(O)c2)c(-c2ccncc2)[nH]1.Cl [TC04] | 86.3 | 0.4 | near total arrest |  | 
